Results published in paper PMC6979384, “Characterization of the plant homeodomain (PHD) reader family for their histone tail interactions” (Epigenetics & Chromatin, 2020).
Where no end group is shown, it is not given here. [ ]: non-standard residue; d: D form. Arg(Me2a) = CN(C)C(=N)NCCC[C@H](N)C(=O)O

What was measured:
Experiment in all cases: Histone peptide microarray
Assay type in all cases: binding, human
KDM5B (1) = settings: KDM5B (1)
From the text: (§1) To more comprehensively define the histone interactions of the 31 PHD readers identified from the domain microarray analyses, we probed each on an alternate microarray platform containing a library of 293 synthetic histone peptides with single or combinatorial PTMs (Additional file 2: Figure S4 and Additional file 3: Table S2).
(§2) The 31 GST-tagged PHD readers identified in the PHD finger domain array were expressed and purified as previously. Histone peptide arrays and peptide pulldown assays were conducted as recently described (specifically, the optimized protocol from Petell et al. for the former).
(§3) Supplementary file 13072_2020_328_MOESM3_ESM.xlsx: Additional file 3: Table S2. […] Excel Tab Peptide List is a compiled list of the entire 293 histone peptide library with amino acid sequence ranges. […] Each number corresponds to the peptide number designated in Peptide List. Excel Tab Average Signals is a compiled set of binding data: chromatin reader at 0.5 μM vs. entire 293 peptide library. Data is presented as the average and standard deviation of 4 replicates. The average signals are colored to indicate signal intensity with green being strong and white being weak/low. […] Key: red= stronger relative binding; blue = weaker relative binding. Excel Tab Array info summary is a table summarizing the domains, sequence coverage, array signal range, and noise for each of the GST-tagged readers assayed on the peptide microarrays.

ING3 = system: ING3
From the text: as §1, §2, §3

MORC3 (CW) = settings: MORC3 (CW)
From the text: as §1, §2, §3

PHRF1 (RP) = settings: PHRF1 (RP)
From the text: as §1, §2, §3

DIDO1 = system: DIDO1
From the text: as §1, §2, §3

PHF23 = system: PHF23
From the text: as §1, §2, §3

ING5 = system: ING5
From the text: as §1, §2, §3

SP140L = settings: SP140L
From the text: as §1, §2, §3

RAG2 = system: RAG2
From the text: as §1, §2, §3

CHD4 (PPCC) = settings: CHD4 (PPCC)
From the text: as §1, §2, §3

PHF8 = system: PHF8
From the text: as §1, §2, §3

TAF3 = system: TAF3
From the text: as §1, §2, §3

CHD5 (PPCC) = settings: CHD5 (PPCC)
From the text: as §1, §2, §3

PHF13 = system: PHF13
From the text: as §1, §2, §3

ING2 = system: ING2
From the text: as §1, §2, §3

KDM5A (3) = settings: KDM5A (3)
From the text: as §1, §2, §3

PHF21A = settings: PHF21A
From the text: as §1, §2, §3

AIRE (PP) = settings: AIRE (PP)
From the text: as §1, §2, §3

KDM5B (3) = settings: KDM5B (3)
From the text: as §1, §2, §3

KDM5A (1) = settings: KDM5A (1)
From the text: as §1, §2, §3

KDM7A = settings: KDM7A
From the text: as §1, §2, §3

DPF2 (PPC2W2) = settings: DPF2 (PPC2W2)
From the text: as §1, §2, §3

TRIM66 (PB) = settings: TRIM66 (PB)
From the text: as §1, §2, §3

ING1 = system: ING1
From the text: as §1, §2, §3

BPTF (PB) = settings: BPTF (PB)
From the text: as §1, §2, §3

PHF2 = system: PHF2
From the text: as §1, §2, §3

CHD5 (PCC) = settings: CHD5 (PCC)
From the text: as §1, §2, §3

ING4 = system: ING4
From the text: as §1, §2, §3

BAZ2B = settings: BAZ2B
From the text: as §1, §2, §3

KDM4C (TTP) = settings: KDM4C (TTP)
From the text: as §1, §2, §3

MLL5 = system: MLL5
From the text: as §1, §2, §3

[1] = GST-tagged, arrays performed twice, n of 4
[2] = sheet "Array Heatmap", each array performed twice, total n = 4

H2AR3me2a + K5ac: H2A 1-17 (SG[Arg(Me2a)]GK(Ac)QGGKARAKAKTR; UniProt P0C0S8 2-18, looked up, fragment)
Array Heatmap value (peptide array binding signal) (KDM5B (1); [1]): 0.6265
Array Heatmap value (peptide array binding signal) (ING3; ING3, GST-tagged, arrays performed twice, n of 4): 0.4528
Array Heatmap value (peptide array binding signal) (MORC3 (CW); [1]): 0.3531
Array Heatmap value (peptide array binding signal) (PHRF1 (RP); [1]): 0.4082
Array Heatmap value (peptide array binding signal) (DIDO1; DIDO1, GST-tagged, arrays performed twice, n of 4): 0.6572
Array Heatmap value (peptide array binding signal) (PHF23; PHF23, GST-tagged, arrays performed twice, n of 4): 0.5294
Array Heatmap value (peptide array binding signal) (ING5; ING5, GST-tagged, arrays performed twice, n of 4): 0.3401
Array Heatmap value (peptide array binding signal) (SP140L; [1]): 0.3352
Array Heatmap value (peptide array binding signal) (RAG2; RAG2, GST-tagged, arrays performed twice, n of 4): 0.2374
Array Heatmap value (peptide array binding signal) (CHD4 (PPCC); [1]): 0.5411
Array Heatmap value (peptide array binding signal) (PHF8; PHF8, GST-tagged, arrays performed twice, n of 4): 0.3477
Array Heatmap value (peptide array binding signal) (TAF3; TAF3, GST-tagged, arrays performed twice, n of 4): 0.2475
Array Heatmap value (peptide array binding signal) (CHD5 (PPCC); [1]): 0.5209
Array Heatmap value (peptide array binding signal) (PHF13; PHF13, GST-tagged, arrays performed twice, n of 4): 0.6011
Array Heatmap value (peptide array binding signal) (ING2; ING2, GST-tagged, arrays performed twice, n of 4): 0.5954
Array Heatmap value (peptide array binding signal) (KDM5A (3); [1]): 0.4055
Array Heatmap value (peptide array binding signal) (PHF21A; [1]): 0.4417
Array Heatmap value (peptide array binding signal) (AIRE (PP); [1]): 0.4061
Array Heatmap value (peptide array binding signal) (KDM5B (3); [1]): 0.4618
Array Heatmap value (peptide array binding signal) (KDM5A (1); [1]): 0.4472
Array Heatmap value (peptide array binding signal) (KDM7A; [1]): 0.3242
Array Heatmap value (peptide array binding signal) (DPF2 (PPC2W2); [1]): 0.6169
Array Heatmap value (peptide array binding signal) (TRIM66 (PB); [1]): 0.6358
Array Heatmap value (peptide array binding signal) (ING1; ING1, GST-tagged, arrays performed twice, n of 4): 0.502
Array Heatmap value (peptide array binding signal) (BPTF (PB); [1]): 0.3416
Array Heatmap value (peptide array binding signal) (PHF2; PHF2, GST-tagged, arrays performed twice, n of 4): 0.5234
Array Heatmap value (peptide array binding signal) (CHD5 (PCC); [1]): 0.7634
Array Heatmap value (peptide array binding signal) (ING4; ING4, GST-tagged, arrays performed twice, n of 4): 0.4409
Array Heatmap value (peptide array binding signal) (BAZ2B; [1]): 0.4585
Array Heatmap value (peptide array binding signal) (KDM4C (TTP); [1]): 0.4418
Array Heatmap value (peptide array binding signal) (MLL5; MLL5, GST-tagged, arrays performed twice, n of 4): 0.5527

H3K23ac (1-32): H3 1-32
Array Heatmap value (peptide array signal) (KDM5B (1); [2]): 0.696
Array Heatmap value (peptide array signal) (ING3; ING3, sheet "Array Heatmap", each array performed twice, total n = 4): 0.4476
Array Heatmap value (peptide array signal) (MORC3 (CW); [2]): 0.4909
Array Heatmap value (peptide array signal) (PHRF1 (RP); [2]): 0.68
Array Heatmap value (peptide array signal) (DIDO1; DIDO1, sheet "Array Heatmap", each array performed twice, total n = 4): 0.6401
Array Heatmap value (peptide array signal) (PHF23; PHF23, sheet "Array Heatmap", each array performed twice, total n = 4): 0.526
Array Heatmap value (peptide array signal) (ING5; ING5, sheet "Array Heatmap", each array performed twice, total n = 4): 0.3453
Array Heatmap value (peptide array signal) (SP140L; [2]): 0.3597
Array Heatmap value (peptide array signal) (RAG2; RAG2, sheet "Array Heatmap", each array performed twice, total n = 4): 0.2372
Array Heatmap value (peptide array signal) (CHD4 (PPCC); [2]): 0.5377
Array Heatmap value (peptide array signal) (PHF8; PHF8, sheet "Array Heatmap", each array performed twice, total n = 4): 0.3314
Array Heatmap value (peptide array signal) (TAF3; TAF3, sheet "Array Heatmap", each array performed twice, total n = 4): 0.2562
Array Heatmap value (peptide array signal) (CHD5 (PPCC); [2]): 0.5376
Array Heatmap value (peptide array signal) (PHF13; PHF13, sheet "Array Heatmap", each array performed twice, total n = 4): 0.5924
Array Heatmap value (peptide array signal) (ING2; ING2, sheet "Array Heatmap", each array performed twice, total n = 4): 0.596
Array Heatmap value (peptide array signal) (KDM5A (3); [2]): 0.4863
Array Heatmap value (peptide array signal) (PHF21A; [2]): 0.4363
Array Heatmap value (peptide array signal) (AIRE (PP); [2]): 0.5525
Array Heatmap value (peptide array signal) (KDM5B (3); [2]): 0.4657
Array Heatmap value (peptide array signal) (KDM5A (1); [2]): 0.4665
Array Heatmap value (peptide array signal) (KDM7A; [2]): 0.3346
Array Heatmap value (peptide array signal) (DPF2 (PPC2W2); [2]): 0.7046
Array Heatmap value (peptide array signal) (TRIM66 (PB); [2]): 0.6504
Array Heatmap value (peptide array signal) (ING1; ING1, sheet "Array Heatmap", each array performed twice, total n = 4): 0.5079
Array Heatmap value (peptide array signal) (BPTF (PB); [2]): 0.3332
Array Heatmap value (peptide array signal) (PHF2; PHF2, sheet "Array Heatmap", each array performed twice, total n = 4): 0.4393
Array Heatmap value (peptide array signal) (CHD5 (PCC); [2]): 0.6958
Array Heatmap value (peptide array signal) (ING4; ING4, sheet "Array Heatmap", each array performed twice, total n = 4): 0.4368
Array Heatmap value (peptide array signal) (BAZ2B; [2]): 0.4309
Array Heatmap value (peptide array signal) (KDM4C (TTP); [2]): 0.4876
Array Heatmap value (peptide array signal) (MLL5; MLL5, sheet "Array Heatmap", each array performed twice, total n = 4): 0.5116
